Legend:
[1] = UV absorption spectrum of the compound as a 5% dispersion in liquid petrolatum (total transmission and reflection, spectrophotometer with integrating sphere); type: physicochemical; details: 60 μm film
Experimental: The UV absorption spectrum of the compound was measured as a 5% dispersion in liquid petrolatum. The total transmission and reflection of the dispersion was determined on a 60 μm film with a spectrophotometer equipped with an integrating sphere.
The UV absorption spectrum of the compound was measured as a 5% dispersion in liquid petrolatum. The total transmission and reflection of the dispersion was determined on a 60 μm film with a spectrophotometer equipped with an integrating sphere (8 trials).

| melting point | absorption maximum [1] | shoulder (first shoulder) [1] | optical density at 310 nm [1] | Structure (SMILES) |
| --- | --- | --- | --- | --- |
| > 260 °C | 260 nm | 305 nm | 0.8 | N[C@@H](CCCCNC(=O)C=Cc1ccccc1)C(=O)O [Example 1, N^ε-cinnamoyl-L-lysine] |
| > 260 °C | 300 nm | 320 nm | 0.4 | COc1ccc(C=CC(=O)NCCCCC(N)C(=O)O)cc1 (centres unmarked) [Example 2] |

Reference: patent publication US6641802B2, “Amino acid compounds and photoprotecting compositions comprised thereof” (Societe L'Oreal S.A., priority 2000, dated 2003)
